Experimental findings from patent US9452980B2, “Substituted benzamides” (Hoffmann-La Roche Inc., priority 2009, dated 2016) are described below.

Each structure is given as a SMILES string. Structures can show the parent of a compound that is named as a salt.

For one test, the target named is mouse TAAR1 (Mus musculus (Mouse), UniProt Q923Y8). Description: Radioligand binding assay on mouse TAAR1. Conditions: mouse TAAR1, HEK-293 membranes, first value of cell mouse/rat; read-out: Ki (μM) mouse. In outline: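 Displacement of the tritiated oxazol-2-ylamine radioligand was measured by filtration and scintillation counting after 1 h incubation at 4 °C. Test concentrations ran 10 pM–10 μM in duplicate, with 10 μM cold ligand giving nonspecific binding. The receptor source was membranes of a stable mouse TAAR1 HEK293 line.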
Chain of mouse TAAR1 (Q923Y8 whole entry): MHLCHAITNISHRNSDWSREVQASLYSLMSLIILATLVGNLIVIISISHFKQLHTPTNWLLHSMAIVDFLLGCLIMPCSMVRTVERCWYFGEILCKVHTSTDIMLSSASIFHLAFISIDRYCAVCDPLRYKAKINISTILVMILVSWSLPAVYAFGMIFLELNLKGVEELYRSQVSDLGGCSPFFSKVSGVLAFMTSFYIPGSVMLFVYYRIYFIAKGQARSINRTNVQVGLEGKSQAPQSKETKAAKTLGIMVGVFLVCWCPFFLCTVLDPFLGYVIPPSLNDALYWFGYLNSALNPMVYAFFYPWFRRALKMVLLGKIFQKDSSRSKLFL

The next test has as its target rat TAAR1 (Rattus norvegicus (Rat), UniProt Q923Y9). Description: Radioligand binding assay on rat TAAR1. The conditions noted are these: rat TAAR1, HEK-293 membranes, second value of cell mouse/rat; read-out: Ki (μM) rat. In outline:
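Membranes from HEK293 cells stably expressing rat TAAR1, with Kd checked per batch by saturation. Competition with ³H-(S)-4-[(ethyl-phenyl-amino)-methyl]-4,5-dihydro-oxazol-2-ylamine, compounds 10 pM–10 μM in duplicate, 1 hr at 4 °C. Filtration then scintillation counting; nonspecific binding defined with 10 μM unlabeled ligand.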

Chain of rat TAAR1 (Q923Y9 whole entry): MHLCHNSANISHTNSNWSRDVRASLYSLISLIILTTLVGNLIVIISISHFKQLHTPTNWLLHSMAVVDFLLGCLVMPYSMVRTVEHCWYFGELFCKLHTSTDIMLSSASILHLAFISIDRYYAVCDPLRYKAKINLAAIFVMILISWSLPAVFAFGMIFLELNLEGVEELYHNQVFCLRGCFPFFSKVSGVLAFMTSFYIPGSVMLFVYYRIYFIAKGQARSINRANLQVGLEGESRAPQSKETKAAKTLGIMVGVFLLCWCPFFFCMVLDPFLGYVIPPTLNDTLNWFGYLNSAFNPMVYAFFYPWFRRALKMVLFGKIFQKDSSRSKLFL

As for `O=C(Cc1ccc(Cl)cc1)Nc1ccc(C2CCCNC2)cc1` (racemic) [Example 102, (RS)-2-(4-Chloro-phenyl)-N-(4-piperidin-3-yl-phenyl)-acetamide hydrochloride], the values for the Ki at mouse TAAR1 and on rat TAAR1 were 0.0108 µM and 0.0894 µM, respectively.
In the same order, the values of `CC(C(=O)Nc1ccc(C2CCCNC2)cc1)c1ccc(Cl)cc1` (racemic) [Example 103, (RS)-2-(4-Chloro-phenyl)-N—((RS)-4-piperidin-3-yl-phenyl)-propionamide] are 0.705 µM and 0.0646 µM.
In the same order, the values of `CC(C(=O)Nc1ccc(C2CCCNC2)cc1)c1cccc(OC(F)(F)F)c1` (racemic) [Example 105, (RS)—N—((RS)-4-Piperidin-3-yl-phenyl)-2-(3-trifluoromethoxy-phenyl)-propionamide] are 0.0296 µM and 0.0135 µM.
In the case of `O=C(Nc1ccc(C2CCCNC2)cc1)c1ncc(F)cc1F` (racemic) [Example 106, (RS)-3,5-Difluoro-pyridine-2-carboxylic acid (4-piperidin-3-yl-phenyl)-amide hydrochloride], the Ki came out at 0.0248 µM on mouse TAAR1 and 1.43 µM on rat TAAR1.
Regarding `O=C(Nc1ccc(CC2CCCN2)cc1)c1ccc(Cl)cc1` (racemic) [Example 107, (RS)-4-Chloro-N-(4-pyrrolidin-2-ylmethyl-phenyl)-benzamide hydrochloride], the Ki at mouse TAAR1 stood at 0.0027 µM; at rat TAAR1, 0.0445 µM.
Taken in the same sequence, the figures for `O=C(Nc1ccc(C2CCNC2)cc1)c1cc2ccccc2c(Cl)n1` (racemic) [Example 108, (RS)-1-Chloro-isoquinoline-3-carboxylic acid (4-pyrrolidin-3-yl-phenyl)-amide hydrochloride] were 0.0046 µM and 0.0081 µM.
Taken in the same sequence, the figures for `O=C(Nc1ccc(CCC2CCNC2)cc1)c1ccc(Cl)cc1` (racemic) [Example 109, (RS)-4-Chloro-N-[4-(2-pyrrolidin-3-yl-ethyl)-phenyl]-benzamide hydrochloride] were 0.0017 µM and 0.0176 µM.
As for `O=C(Nc1ccc(CCC2CCCNC2)cc1)c1ccc(Cl)cc1` (racemic) [Example 110, (RS)-4-Chloro-N-[4-(2-piperidin-3-yl-ethyl)-phenyl]-benzamide hydrochloride], the inhibition constant Ki came out at 0.0021 µM at mouse TAAR1 and 0.0375 µM at rat TAAR1.
Taken in the same sequence, the figures for `CC(C(=O)Nc1ccc(C2CCCNC2)cc1)c1cccc(Cl)c1` (racemic) [Example 111, (RS)-2-(3-Chloro-phenyl)-N—((RS)-4-piperidin-3-yl-phenyl)-propionamide] were 0.0349 µM and 0.0382 µM.
In the same order, the values of `O=C(Nc1ccc(CCC2CCNC2)cc1)Nc1ccc(Cl)cn1` (racemic) [Example 114, (RS)-1-(5-Chloro-pyridin-2-yl)-3-[4-(2-pyrrolidin-3-yl-ethyl)-phenyl]-urea hydrochloride] are 0.0836 µM and 0.0074 µM.
Turning to `O=C(Nc1ccc(CCC2CCCNC2)cc1)Nc1ccc(Cl)cn1` (racemic) [Example 115, (RS)-1-(5-Chloro-pyridin-2-yl)-3-[4-(2-piperidin-3-yl-ethyl)-phenyl]-urea hydrochloride], the results for the Ki at mouse TAAR1 and on rat TAAR1 were 0.32 µM and 0.0118 µM, respectively.
For `O=C(Nc1ccc(Cl)cc1)Nc1ccc(CCC2CCNC2)cc1` (racemic) [Example 116, (RS)-1-(4-Chloro-phenyl)-3-[4-(2-pyrrolidin-3-yl-ethyl)-phenyl]-urea hydrochloride], the Ki at mouse TAAR1 worked out at 0.0608 µM; on rat TAAR1, 0.0014 µM.
Consider `O=C(Nc1ccc(CCC2CCNC2)cc1)c1ccc(Cl)cn1` (racemic) [Example 117, (RS)-5-Chloro-pyridine-2-carboxylic acid [4-(2-pyrrolidin-3-yl-ethyl)-phenyl]-amide hydrochloride], for which the values for the Ki on mouse TAAR1 and at rat TAAR1 were 0.0531 µM and 0.0029 µM, respectively.
Turning to `O=C(Nc1ccc(CCC2CCCNC2)cc1)c1ccc(Cl)cn1` (racemic) [Example 118, (RS)-5-Chloro-pyridine-2-carboxylic acid [4-(2-piperidin-3-yl-ethyl)-phenyl]-amide hydrochloride], the figures for the Ki on mouse TAAR1 and at rat TAAR1 were 0.13 µM and 0.0081 µM, respectively.
As to `O=C(Nc1ccc(Cl)cc1)Nc1ccc(CCC2CCCNC2)cc1` (racemic) [Example 119, (RS)-1-(4-Chloro-phenyl)-3-[4-(2-piperidin-3-yl-ethyl)-phenyl]-urea hydrochloride], the results for the Ki on mouse TAAR1 and at rat TAAR1 were 0.0365 µM and 0.0018 µM, respectively.
In the same order, the values of `O=C(Nc1ccc(C2CCNC2)cc1)OCCc1ccc(Cl)cc1` (racemic) [Example 120, (RS)-(4-Pyrrolidin-3-yl-phenyl)-carbamic acid 2-(4-chloro-phenyl)-ethyl ester] are 0.0004 µM and 0.0013 µM.
Taken in the same sequence, the figures for `O=C(Nc1ccc(C2CCNC2)cc1)OCCc1cccc(Cl)c1` (racemic) [Example 121, (RS)-(4-Pyrrolidin-3-yl-phenyl)-carbamic acid 2-(3-chloro-phenyl)-ethyl ester] were 0.0005 µM and 0.0004 µM.
In the same order, the values of `O=C(Nc1ccc(C2CCNC2)cc1)OCCc1ccc(C(F)(F)F)cc1` (racemic) [Example 122, (RS)-(4-Pyrrolidin-3-yl-phenyl)-carbamic acid 2-(4-trifluoromethyl-phenyl)-ethyl ester] are 0.0003 µM and 0.0011 µM.
For `O=C(Nc1ccc(C2CCNC2)cc1)OCCc1cccc(C(F)(F)F)c1` (racemic) [Example 123, (RS)-(4-Pyrrolidin-3-yl-phenyl)-carbamic acid 2-(3-trifluoromethyl-phenyl)-ethyl ester], the Ki on mouse TAAR1 worked out at 0.0014 µM; at rat TAAR1 it was 0.0022 µM.
Consider `O=C(Nc1ccc(C2CCNC2)cc1)OCCc1cc(F)ccc1F` (racemic) [Example 124, (RS)-(4-Pyrrolidin-3-yl-phenyl)-carbamic acid 2-(2,5-difluoro-phenyl)-ethyl ester], for which the Ki at mouse TAAR1 was 0.0013 µM; on rat TAAR1, 0.0036 µM.
In the same order, the values of `O=C(Nc1ccc(C2CCNC2)cc1)OCCc1ccc(Cl)c(Cl)c1` (racemic) [Example 126, (RS)-(4-Pyrrolidin-3-yl-phenyl)-carbamic acid 2-(3,4-dichloro-phenyl)-ethyl ester] are 0.0019 µM and 0.0022 µM.
As to `CC(OC(=O)Nc1ccc(C2CCNC2)cc1)c1ccc(Cl)cc1` (racemic) [Example 127, (RS)-(4-Pyrrolidin-3-yl-phenyl)-carbamic acid (RS)-1-(4-chloro-phenyl)-ethyl ester], the Ki on mouse TAAR1 was 0.0006 µM; on rat TAAR1 it was 0.002 µM.
As for `O=C(Nc1ccc(C2CCNC2)cc1)OCCCc1ccc(Cl)cc1` (racemic) [Example 128, (RS)-(4-Pyrrolidin-3-yl-phenyl)-carbamic acid 3-(4-chloro-phenyl)-propyl ester], the Ki at mouse TAAR1 and on rat TAAR1 was 0.0003 µM in each case.
As for `O=C(Nc1ccc(C2CCNC2)cc1)OC(c1ccc(Cl)cc1)C(F)(F)F` (racemic) [Example 130, (RS)-(4-Pyrrolidin-3-yl-phenyl)-carbamic acid (RS)-1-(4-chloro-phenyl)-2,2,2-trifluoro-ethyl ester], the Ki on mouse TAAR1 was 0.0017 µM; at rat TAAR1, 0.0169 µM.
Taken in the same sequence, the figures for `O=C(Nc1ccc(CCC2CCNC2)cc1)c1ncccc1F` (racemic) [Example 132, (RS)-3-Fluoro-pyridine-2-carboxylic acid [4-(2-pyrrolidin-3-yl-ethyl)-phenyl]-amide hydrochloride] were 9.99 µM and 0.141 µM.

The Ki is a measure of affinity in units of concentration, obtained from inhibition or displacement.
